The values that follow come from patent US20040166060A1, “Liposomal encapsulation of alpha particle emittors and uses thereof” (Sloan Kettering Institute for Cancer Research, priority 2000, published 2004).

The nature of data set [1]: Biodistribution of In-111-DTPA and large liposomes. As to conditions: in vivo. An excerpt:
FIGS. 10A-10C depict the biodistribution of ^111In-DTPA only (FIG. 10A) zwitterionic liposomes (FIG. 10B), ^111In-DTPA cationic liposomes (FIG. 10C).
Over time the percentage per gram of tissue tested of the original amount of In-111 found in the spleen and liver increases while that in blood and other tissues such as heart, lungs, stomach, intestines, kidneys, bone, and muscle remain constant or decrease. […] Preinjection with empty large liposomes to saturate the reticuloendothelial organs will reduce non-specific radionuclide uptake by the spleen and liver.

A further data set deals with myeloid leukemia. As to conditions: first injection of an alpha-particle emitter to humans; cited from earlier work.

Consider `O=C([O-])CN(CCN(CC(=O)[O-])CC(=O)[O-])CCN(CC(=O)[O-])CC(=O)[O-].[111In+3].[H+].[H+]` [DTPA-chelated In-111], for which the “tissue localization of In-111” value in data set [1] is on record as “localize to the kidneys more than to other tissues”.

Turning to “HuM195: 213Bi conjugated to the anti-CD33 antibody HuM195”, the trial outcome in the data set on myeloid leukemia was “feasibility and anti-cancer activity with minimal toxicity”.
